Values joined by “and” are separate entries in the source; they are usually repeats but may differ in a detail not shown here. Equal values may be shown once.
Tests used:
[1] = system: U2OS line transduced with the Bmal 1-Luc reporter; assay: Period of the circadian rhythm in U2OS cells with Bmal1-Luc reporter (luminescence, cosinor analysis); format: cell-based, Human; settings: U2OS, DMSO control = 1.00
Procedure: Human osteosarcoma U2OS cells were grown in standard DMEM medium with 10% fetal bovine serum. U2OS cells were transduced with lentiviral particles containing a Bmall-Luc fusion reporter and selected under Blasticidin. The cell line was clonally expanded and a single monoclonal cell line was used for further experiments. Cells were cultured in a 384-well plate in growth medium to 90+% confluence. Test compound or vehicle (DMSO) was applied to recording medium with 100 U/ml penicillin, 100 ug/ml streptomycin, 1x GlutaMAX, 10% fetal bovine serum, and 0.1 mM Luciferin-EF. Luminescence was recorded every hour for the next 144 hours. Circadian rhythm analysis was performed using cosinor analysis.
The length of the period was expressed relative to the period of cells affected only by DMSO vehicle (their period is therefore 1.00). […] The overall effect on circadian oscillations unequivocally proves that the compounds of formula I can be also used to temporally modulate the concentration and activity of not only BMAL1, but also other components of the oscillator including the critical components PER2, CRY and CLOCK in time, as these are an essential part of the mechanism generating the rhythmic expression of the luminescent reporter used. The concentration and level of other proteins, whose rhythmic expression is controlled by an oscillator in the brain and peripheral tissues (so-called clock-controlled genes), are also necessarily affected. The influence of the compounds of formula I on the activity of oscillator components and subordinate genes also means influencing the physiological processes of the cell controlled by these genes and proteins. N^6-furfuryladenine was used as a reference compound. […] The ability to shift the phase of the circadian cycle can be seen in FIG. 2.

[2] = system: NIH3T3 line transfected with the Per2-Luc reporter; assay: Period of the circadian rhythm in NIH3T3 fibroblasts with Per2-Luc reporter (luminescence, cosinor analysis); format: cell-based, mouse; settings: NIH3T3, DMSO control = 1.00
Procedure: NIH3T3 mouse embryonic fibroblasts were grown in standard DMEM with 10% fetal bovine serum. NIH3T3 cells were transfected with 1 μg of Per2-Luc reporter using GeneJuice and selected under hygromycin. The cell line was clonally expanded and a single monoclonal cell line was used for further experiments. Cells were cultured in a 96-well plate in growth medium to 90+% confluence. Test compound or vehicle (DMSO) was applied to recording medium with 100 U/ml penicillin, 100 μg/ml streptomycin, 1x GlutaMAX, 10% fetal calf serum and 0.1 mM Luciferin-EF (Promega Madison, WI, USA). Luminescence was recorded every hour for the next 144 hours. Circadian rhythm analysis was performed using cosinor analysis. Period length was expressed relative to the period of cells affected only by DMSO vehicle (their period length is therefore 1.00).

OCCNc1nc(NCc2ccco2)c2ncn(C3CCOCC3)c2n1 [Compound 57]
Period length ± standard error of the mean (expressed relative to control) at the indicated concentration ([1]; 20 μM): 20 μM: 1.16 ± 0.01

Clc1nc(NCc2ccco2)c2ncn(C3CCCCO3)c2n1 (stereo not drawn) [Compound 9]
Period length ± standard error of the mean (expressed relative to control) at the indicated concentration ([1]; 10 μM): 1.09 ± 0.01
Period length ± standard error of the mean (expressed relative to control) at the indicated concentration ([1]; 20 μM): 1.11 ± 0.01

CNc1nc(NCc2ccco2)c2ncn(C3CCCCO3)c2n1 (stereo not drawn) [Compound 33]
Period length ± standard error of the mean (expressed relative to control) at the indicated concentration ([1]; 5 μM): 5 μM: 1.04 ± 0
Period length ± standard error of the mean (expressed relative to the control) at the indicated concentration ([2]; 50 μM): 50 μM: 1.18 ± 0.02

c1ccc(Cn2cnc3c(NCc4ccco4)ncnc32)cc1 [9-benzyl-N-(furan-2-ylmethyl)-9H-purin-6-amine, reference compound]
Period length ± standard error of the mean (expressed relative to control) at the indicated concentration ([1]; 10 μM): 10 μM: 1 ± 0.02
Period length ± standard error of the mean (expressed relative to the control) at the indicated concentration ([2]; 10 μM): 10 μM: 1 ± 0.02

CC(C)Oc1nc(NCc2ccco2)c2ncn(C3CCCC3)c2n1 [Compound 21]
Period length ± standard error of the mean (expressed relative to control) at the indicated concentration ([1]; 20 μM): 20 μM: 1.26 ± 0.06

Nc1ncnc2c1ncn2C1CCCO1 (stereo not drawn) [9-(tetrahydrofuran-2-yl)-9H-purin-6-amine, reference compound]
Period length ± standard error of the mean (expressed relative to control) at the indicated concentration ([1]; 20 μM): 20 μM: 0.98 ± 0.02

Cc1ccc(CNc2nc(Cl)nc3c2ncn3C2CCCCO2)o1 (stereo not drawn) [Compound 13, 2-chloro-N-[(5-methylfuran-2-yl)methyl]-9-(tetrahydro-2H-pyran-2-yl)-9H-purin-6-amine]
Period length ± standard error of the mean (expressed relative to the control) at the indicated concentration ([2]; 10 μM): 10 μM: 1.19 ± 0.01

c1coc(CNc2nc(NC3CCCC3)nc3c2ncn3C2CCCCO2)c1 (stereo not drawn) [Compound 39]
Period length ± standard error of the mean (expressed relative to control) at the indicated concentration ([1]; 20 μM): 20 μM: 1.05 ± 0.01

c1coc(CNc2ncnc3c2ncn3C2CCOC2)c1 (stereo not drawn) [Compound 3, N-(furan-2-ylmethyl)-9-(tetrahydrofuran-3-yl)-9H-purin-6-amine]
Period length ± standard error of the mean (expressed relative to control) at the indicated concentration ([1]; 10 μM): 10 μM: 1.06 ± 0.01

Cc1ccc(CNc2nc(N(C)C)nc3c2ncn3C2CCCCO2)o1 (stereo not drawn) [Compound 51]
Period length ± standard error of the mean (expressed relative to the control) at the indicated concentration ([2]; 0.83 μM): 1.05 ± 0.02
Period length ± standard error of the mean (expressed relative to the control) at the indicated concentration ([2]; 10 μM): 1.08
Period length ± standard error of the mean (expressed relative to the control) at the indicated concentration ([2]; 50 μM): 0.02; 50 μM: 1.74 ± 0.2

c1coc(CNc2ncnc3c2ncn3C2CCOCC2)c1 [Compound 5]
Period length ± standard error of the mean (expressed relative to control) at the indicated concentration ([1]; 10 μM): 10 μM: 1.05 ± 0.01

CN(C)CCNc1nc(NCc2ccco2)c2ncn(C3CCOC3)c2n1 (stereo not drawn) [Compound 28]
Period length ± standard error of the mean (expressed relative to control) at the indicated concentration ([1]; 20 μM): 20 μM: 1.16 ± 0

CC(C)Oc1nc(NCc2ccco2)c2ncn(C3CCOC3)c2n1 (stereo not drawn) [Compound 32]
Period length ± standard error of the mean (expressed relative to control) at the indicated concentration ([1]; 20 μM): 20 μM: 1.09 ± 0

c1coc(CNc2nc(N3CCCC3)nc3c2ncn3C2CCCCO2)c1 (stereo not drawn) [Compound 40]
Period length ± standard error of the mean (expressed relative to control) at the indicated concentration ([1]; 10 μM): 10 μM: 1.04 ± 0

CN(CCN)c1nc(NCc2ccco2)c2ncn(C3CCCCO3)c2n1 (stereo not drawn) [Compound 43]
Period length ± standard error of the mean (expressed relative to control) at the indicated concentration ([1]; 1 μM): 1 μM: 1.08 ± 0.01

Clc1nc(NCc2ccco2)c2ncn(C3CCOC3)c2n1 (stereo not drawn) [Compound 8]
Period length ± standard error of the mean (expressed relative to control) at the indicated concentration ([1]; 10 μM): 1.04 ± 0.01
Period length ± standard error of the mean (expressed relative to control) at the indicated concentration ([1]; 20 μM): 1.22 ± 0

Cc1ccc(CNc2ncnc3nc[nH]c23)o1 [N^6-(5-methylfurfuryl)adenine, reference compound]
Period length ± standard error of the mean (expressed relative to control) at the indicated concentration ([1]; 50 μM): 50 μM: 1.01 ± 0.02

CC(C)Oc1nc(NCc2ccco2)c2ncn(C3CCCCO3)c2n1 (stereo not drawn) [Compound 49, N-(furan-2-ylmethyl)-2-isopropoxy-9-(tetrahydro-2H-pyran-2-yl)-9H-purin-6-amine]
Period length ± standard error of the mean (expressed relative to control) at the indicated concentration ([1]; 20 μM): 20 μM: 1.14 ± 0.01

CNc1nc(NCc2ccco2)c2ncn(C3CCOCC3)c2n1 [Compound 52]
Period length ± standard error of the mean (expressed relative to control) at the indicated concentration ([1]; 20 μM): 20 μM: 1.08 ± 0.01

c1coc(CNc2nc(N3CCOCC3)nc3c2ncn3C2CCOCC2)c1 [Compound 58]
Period length ± standard error of the mean (expressed relative to control) at the indicated concentration ([1]; 20 μM): 20 μM: 1.42 ± 0.04

NCCNc1nc(NCc2ccco2)c2ncn(C3CCCCO3)c2n1 (stereo not drawn) [Compound 41]
Period length ± standard error of the mean (expressed relative to control) at the indicated concentration ([1]; 1 μM): 1.03 ± 0.01
Period length ± standard error of the mean (expressed relative to control) at the indicated concentration ([1]; 5 μM): 1.07 ± 0
Period length ± standard error of the mean (expressed relative to control) at the indicated concentration ([1]; 20 μM): 1.32 ± 0.01

CN(CCN)c1nc(NCc2ccco2)c2ncn(C3CCOC3)c2n1 (stereo not drawn) [Compound 27]
Period length ± standard error of the mean (expressed relative to control) at the indicated concentration ([1]; 20 μM): 20 μM: 1.25 ± 0.01

CN(C)c1nc(NCc2ccco2)c2ncn(C3CCOCC3)c2n1 [Compound 53]
Period length ± standard error of the mean (expressed relative to control) at the indicated concentration ([1]; 20 μM): 20 μM: 1.22 ± 0.01

c1coc(CNc2ncnc3c2ncn3C2CCCO2)c1 (stereo not drawn) [Compound 2]
Period length ± standard error of the mean (expressed relative to control) at the indicated concentration ([1]; 10 μM): 10 μM: 1.05 ± 0.01

CN(C)CCNc1nc(NCc2ccco2)c2ncn(C3CCOCC3)c2n1 [Compound 55, N^2-(2-(dimethylamino)ethyl)-N^6-(furan-2-ylmethyl)-9-(tetrahydro-2H-pyran-4-yl)-9H-purine-2,6-diamine]
Period length ± standard error of the mean (expressed relative to control) at the indicated concentration ([1]; 4 μM): 4 μM: 1.16 ± 0.01

CN(C)c1nc(NCc2ccco2)c2ncn(C3CCCCCO3)c2n1 (stereo not drawn) [Compound 61]
Period length ± standard error of the mean (expressed relative to control) at the indicated concentration ([1]; 10 μM): 1.04 ± 0.01
Period length ± standard error of the mean (expressed relative to control) at the indicated concentration ([1]; 20 μM): 1.15 ± 0.02

OCCNc1nc(NCc2ccco2)c2ncn(C3CCCC3)c2n1 [Compound 19]
Period length ± standard error of the mean (expressed relative to control) at the indicated concentration ([1]; 1 μM): 1.07 ± 0.01
Period length ± standard error of the mean (expressed relative to control) at the indicated concentration ([1]; 4 μM): 1.21 ± 0.01

c1coc(CNc2nc(N3CCOCC3)nc3c2ncn3C2CCOC2)c1 (stereo not drawn) [Compound 31]
Period length ± standard error of the mean (expressed relative to control) at the indicated concentration ([1]; 20 μM): 20 μM: 1.13 ± 0.01

Clc1nc(NCc2ccco2)c2ncn(C3CCCO3)c2n1 (stereo not drawn) [Compound 7]
Period length ± standard error of the mean (expressed relative to control) at the indicated concentration ([1]; 10 μM): 10 μM: 1.13 ± 0.02

CNc1nc(NCc2ccco2)c2ncn(C3CCOC3)c2n1 (stereo not drawn) [Compound 25]
Period length ± standard error of the mean (expressed relative to control) at the indicated concentration ([1]; 20 μM): 20 μM: 1.06 ± 0.01

NCCNc1nc(NCc2ccco2)c2ncn(C3CCOC3)c2n1 (stereo not drawn) [Compound 29]
Period length ± standard error of the mean (expressed relative to control) at the indicated concentration ([1]; 20 μM): 20 μM: 1.09 ± 0

CN(CCN)c1nc(NCc2ccco2)c2ncn(C3CCOCC3)c2n1 [Compound 54]
Period length ± standard error of the mean (expressed relative to control) at the indicated concentration ([1]; 5 μM): 5 μM: 1.14 ± 0.02

c1coc(CNc2nc(N3CCOCC3)nc3c2ncn3C2CCCCO2)c1 (stereo not drawn) [Compound 47]
Period length ± standard error of the mean (expressed relative to control) at the indicated concentration ([1]; 5 μM): 1.08 ± 0.01
Period length ± standard error of the mean (expressed relative to control) at the indicated concentration ([1]; 20 μM): 1.47 ± 0.03

Clc1nc(NCc2ccco2)c2[nH]cnc2n1 [2-chloro-N^6-furfuryladenine, reference compound]
Period length ± standard error of the mean (expressed relative to control) at the indicated concentration ([1]; 20 μM): 20 μM: 1.00 ± 0.03

CC(C)Oc1nc(NCc2ccco2)c2ncn(C3CCOCC3)c2n1 [Compound 59]
Period length ± standard error of the mean (expressed relative to control) at the indicated concentration ([1]; 20 μM): 1.2 ± 0.01 and 1.11 ± 0.02

OCCNc1nc(NCc2ccco2)c2ncn(C3CCOC3)c2n1 (stereo not drawn) [Compound 30]
Period length ± standard error of the mean (expressed relative to control) at the indicated concentration ([1]; 20 μM): 20 μM: 1.05 ± 0

Cc1ccc(CNc2nc(Cl)nc3c2ncn3C2CCCO2)o1 (stereo not drawn) [Compound 12]
Period length ± standard error of the mean (expressed relative to control) at the indicated concentration ([1]; 10 μM): 10 μM: 1.16 + 0.01

Source: patent US20250346601A1, “HETEROCYCLIC COMPOUNDS FOR THE PREVENTION AND THERAPY OF CIRCADIAN RHYTHM DISORDERS” (UNIVERZITA PALACKEHO V OLOMOUCI, priority 2022, published 2025)
